Experiments:
[1] = test system: SK-OV-3; assay: cells; conditions: Homo sapiens
Description: Antiproliferative activity against human SK-OV-3 cells assessed as inhibition of cell growth measured after 22 to 70 hrs by CCK-8 assay

[2] = test system: HepG2; assay: cells; conditions: Homo sapiens
Description: Antiproliferative activity against human HepG2 cells assessed as inhibition of cell growth measured after 22 to 70 hrs by CCK-8 assay

[3] = test system: HCT-116; assay: cells; conditions: Homo sapiens
Description: Antiproliferative activity against human HCT-116 cells assessed as inhibition of cell growth measured after 22 to 70 hrs by CCK-8 assay

[4] = test system: SK-OV-3; assay: Cytotoxicity against human SK-OV-3 cells assessed as inhibition of cell growth measured after 24 hrs by CCK-8 assay; assay type: toxicity, cell-based; conditions: sk-ov-3, 24 h
[5] = test system: A2780; assay: Cytotoxicity against human A2780 cells assessed as inhibition of cell growth measured after 24 hrs by CCK-8 assay; assay type: toxicity, cell-based; conditions: a2780, 24 h
[6] = test system: SK-OV-3; assay: cells; conditions: Homo sapiens, SK-OV-3, 24 h
Description: Cytotoxicity against human SK-OV-3 cells expressing low FOXM1 assessed as inhibition of cell growth measured after 24 hrs by CCK-8 assay

[7] = Cytotoxicity against human FTE-187 cells assessed as inhibition of cell growth upto 50 uM measured after 24 to 48 hrs by CCK-8 assay; assay type: toxicity, cell-based; conditions: fte-187, 50 µM, time 24-48 hrs
[8] = test system: SK-OV-3; assay: Down regulation of PLK1 expression in human SK-OV-3 cells by Western blotting analysis; assay type: functional, cell-based; conditions: dose 0.1-10 µg/ml
[9] = test system: SK-OV-3; assay: Down regulation of CDC25B expression in human SK-OV-3 cells by Western blotting analysis; assay type: functional, cell-based; conditions: dose 0.1-10 µg/ml

Structure (SMILES) | IC50 [1] [µM] | also measured
O=[N+]([O-])c1ccccc1COc1ccc(OCCOCCNC2CCCC2)cc1 | 5.37 | 
c1ccc(COc2ccc(OCCOCCNc3ccccc3)cc2)cc1 | > 100 | 
c1ccc2cc(OCCOCCNC3CCCC3)ccc2c1 | 40.6 | 
O=C(O)c1ccc(COc2ccc(OCCOCCNC3CCCC3)cc2)cc1 | > 100 | 
O=[N+]([O-])c1ccc(COc2ccc(OCCOCCNC3CCCC3)cc2)cc1 | 20.3 | 
O=[N+]([O-])c1cccc(COc2ccc(OCCOCCNC3CCCC3)cc2)c1 | 15.4 | 
O=C(O)c1ccccc1COc1ccc(OCCOCCNC2CCCC2)cc1 | > 100 | 
OCCOCCOCCOc1ccc(OCc2ccccc2)cc1 | 59.4 | 
COC(=O)c1cccc(COc2ccc(OCCOCCNC3CCCC3)cc2)c1 | 45.5 | 
COc1ccc(OCCOCCNC2CCCC2)cc1 | 99.1 | 
COC(=O)c1ccc(COc2ccc(OCCOCCNC3CCCCC3)cc2)cc1 | 6.22 | IC50 [2]: 30.3 µM; IC50 [3]: 5.3 µM
c1ccc(COc2ccc(OCCOCCNc3cc[nH]c3)cc2)cc1 | 11.3 | 
COc1ccc(COc2ccc(OCCOCCNC3CCCC3)cc2)cc1 | 15.7 | 
CCOc1ccc(OCCOCCNC2CCCC2)cc1 | 90.5 | 
CN(C)CCOCCOc1ccc(OCc2ccccc2)cc1 | 11.9 | 
COC(=O)c1ccc(COc2ccc(OCCOCCNC3CCCC3)cc2)cc1 | 6.99 | 
CC(C)(C)OC(=O)n1ccc(NCCOCCOc2ccc(OCc3ccccc3)cc2)c1 | 13 | 
COC(=O)c1ccccc1COc1ccc(OCCOCCNC2CCCC2)cc1 | > 100 | 
c1ncn(-c2ccc(OCCOCCNC3CCCC3)cc2)n1 | > 100 | 
c1ccc(COc2ccc(COc3ccc(OCCOCCNC4CCCC4)cc3)cc2)cc1 | 10 | 
O=Cc1ccc(COc2ccc(OCCOCCNC3CCCC3)cc2)cc1 | 45 | 
c1ccc(COc2ccccc2OCCOCCNC2CCCC2)cc1 | 40.7 | 
c1cc2c(cc1OCCOCCNC1CCCC1)CCCC2 | 31.9 | 
COc1cc(OCCOCCNC2CCCC2)ccc1OCc1ccccc1 | 44.6 | 
Nc1c(C(=O)Nc2ccc(F)cc2)sc2nc(-c3cccs3)cc(C(F)(F)F)c12 | 51.4 | IC50 [2]: 70.5 µM; IC50 [3]: 86.1 µM
c1ccc(COc2ccc(OCCOCCNc3ccncc3)cc2)cc1 | 20.6 | 

The next lines start with results.

IC50 [1] [µM] | Structure (SMILES) | also measured
7.46 | c1ccc(COc2ccc(OCCOCCNC3CCCCCC3)cc2)cc1 | 
7.67 | Clc1ccc(COc2ccc(OCCOCCNC3CCCC3)cc2)cc1 | 
2.65 | Clc1ccc(COc2ccc(OCCOCCNC3CCCCC3)cc2)cc1 | IC50 [2]: 15.1 µM; IC50 [3]: 2.69 µM; Activity [4]: Toxic; Activity [5]: Toxic; IC50 [6]: 65.4 µM; Activity [7]: Non-Toxic; Activity [8]: Dose-Dependent Effect; Activity [9]: Dose-Dependent Effect
48 | c1ccc(COc2ccc(OCCOCCNC3CCOC3)cc2)cc1 (stereo not given) | 
2.88 | O=[N+]([O-])c1ccccc1COc1ccc(OCCOCCNC2CCCCC2)cc1 | IC50 [2]: 25.5 µM; IC50 [3]: 11.1 µM
7.37 | c1ccc(COc2ccc(OCCOCCNC3CCCCC3)cc2)cc1 | 
31.7 | Nc1ccc(COc2ccc(OCCOCCNC3CCCC3)cc2)cc1 | 
25 | c1ccc(COc2ccc(OCCOCCNC3CCC3)cc2)cc1 | 
17.2 | Cc1ccc(COc2ccc(OCCOCCNC3CCCC3)cc2)cc1 | 
> 100 | O=C(O)c1cccc(COc2ccc(OCCOCCNC3CCCC3)cc2)c1 | 
24.8 | c1ccc(COc2ccc(OCCOCCNC3CCCC3)cc2)cc1 | IC50 [2]: 25.4 µM; IC50 [3]: 12.9 µM
> 100 | c1ccc(COc2ccc(OCCOCCOC3CCCC3)cc2)cc1 | 
10.8 | Nc1cccc(COc2ccc(OCCOCCNC3CCCC3)cc2)c1 | 
8.08 | c1ccc(COc2ccc(COc3ccc(OCCOCCNC4CCCCC4)cc3)cc2)cc1 | IC50 [2]: 18.1 µM; IC50 [3]: 4.35 µM
14 | Nc1ccccc1COc1ccc(OCCOCCNC2CCCC2)cc1 | 
47.2 | c1ccc(COc2ccc(OCCOCCNC3CC3)cc2)cc1 | 

— ChEMBL document CHEMBL5247636, “Synthesis and antineoplastic activity of ethylene glycol phenyl aminoethyl ether derivatives as FOXM1 inhibitors” (Eur J Med Chem, 2022)
